According to patent publication US20240082212A1, “USE OF MDMA FOR TREATMENT OF STRESS-RELATED DISORDERS” (priority 2022, published 2024):

Columns and labels:
[1] = target: Serotonin 5-HT2A (Homo sapiens, UniProt P28223); assay: Eurofins Panlabs radioligand binding panel, serotonin 5-HT2A
[2] = tested on: C57BL/6 mice; assay: Mouse locomotor activity over 11 days after single administration
Method: Methods. Male C57BL/6 mice (n=10-12 per group) from Jackson Laboratories, US (10-12 weeks of age), were assigned randomly to treatment groups. The animals were acclimated to the laboratory for at least five days prior to experimental manipulation. […] Standard rodent chow and water were available ad libitum, except during experimental test sessions. Animals were maintained in a controlled environment, and temperature and humidity were recorded continuously in the holding room.
The animal procedures were conducted according to established and approved protocols. On each experimental day, animals were acclimated to a procedure room adjacent to the testing room for at least 30 minutes prior to the start of experimental sessions. To evaluate acute compound effects on activity, an animal was administered a single dose of test article 30 minutes prior to individual placement in a novel test chamber on experimental day 1. Activity was detected using photo beams (e.g., 16×16 beams with a space of 2 cm between beams, Med Associates®) and recorded using the Activity Monitor™ program designed by Med Associates®. The primary endpoint was total distance traveled (cm), as a measure of locomotion. Additional activity measures included total ambulatory counts, ambulatory time (sec), vertical counts and vertical time (sec). All endpoints were recorded and analyzed over a 30-minute test period. At the end of the test session, each animal was returned to its home cage. To evaluate potential lasting effects on activity following single administration of compounds, each animal was re-evaluated in the same test chamber on experimental days 2, 6, and 11, without additional test article administration.
Animals were randomly assigned to treatment groups and testing was conducted in a manner counterbalancing treatment groups. Activity measures were analyzed statistically using 2-way analysis of variance (ANOVA) with experimental day as the within-subjects factor and treatment as the between-subjects factor. Following a significant overall ANOVA (p<0.05), post hoc comparisons between test article and vehicle conditions were made using Fisher's Least Significant Difference (LSD, p<0.05).

[3] = tested on: C57BL/6 mice; assay: Mouse extinction of conditioned fear assay; type: in vivo
Method: Racemic MDMA and R(−)-MDMA were evaluated for extinction of fear memory. The study utilized a mouse extinction of conditioned fear assay. A conditioned fear response is induced by pairing a previously neutral stimulus (conditioned stimulus; CS, such as an auditory tone) and aversive stimulus (unconditioned stimulus; US, such as […]). The fear response is later extinguished with repeated re-exposure to the CS in the absence of the US. This is a useful model for understanding learning and memory processes required for long-term recovery from PTSD, because it resembles exposure-based therapy, wherein repeated exposure to a fear-eliciting stimulus or memory promotes a reduced fear response to future reminders of the trauma. […] The current experiment investigated the ability of varying doses of R(−)-MDMA to facilitate extinction of conditioned fear in mice.
Standard rodent chow and water was available ad libitum.
The animal procedures were conducted according to established protocols approved by the IACUC committee and Melior Discovery Inc. Standard Operation Procedures (SOP). The behavioral procedure was adapted from Young et al., Transl Psychiatry 5, e634 (2015) with slight modifications. Mice were handled for two consecutive days for four minutes each day and injected with drug vehicles prior to the experiment. […] Fear conditioning was conducted in individual automated chambers built by Kinder Scientific (Poway, CA) that detect movement with infrared beams. On Day 1, Conditioning, each animal was placed in a chamber and presented a training session (Context A). An almond scent was present under the grid floor during the entire session. The training procedure consisted of a 2-minute habituation followed by a 30-second, 80 dB tone (CS). During the last 2 seconds of the tone, the animal received a 1 mA foot shock (US). This US-CS procedure occurred once for a total of one paired presentation of tone and shock. Freezing behavior (immobility) was recorded in 5-second intervals during the session. Percent baseline freezing behavior was determined in the 2-minute habituation period. After the session, animals were returned to their cages in the holding room. Animals were not manipulated on Day 2. On Day 3, Extinction Training, two days (48 hours) following fear conditioning, each animal was placed in Context B, in which the tactile and odor cues of the conditioning chambers were altered with a different (lemon) scent and black Plexiglas floor placed over the grid floor. Following a 2-minute acclimation period, the animal received four 30-second presentations of the CS (tone) in the absence of the US (foot shock), with a 45-second interval between presentations and 30 seconds of chamber consolidation. Immobility was recorded in 5-second intervals to measure baseline freezing response to the altered context, and freezing response to each tone/cue presentation. On Day 3, each animal was administered vehicle or racemic MDMA by intraperitoneal (IP) injection at 30 minutes prior, to the extinction training session. On Days 4, 8, and 13, Extinction Testing sessions, each animal was placed in Context B. Following a 2-minute acclimation period, each animal received four 30-second presentations of the CS (tone) in the absence of the US (foot shock), with a 45-second interval between presentations and 30 seconds of chamber consolidation. Immobility was recorded in 5-second intervals to measure baseline freezing response to the altered context, and freezing response to each tone/cue presentation.
Each animal in each treatment group received IP administration of vehicle or R(−)-MDMA or racemic MDMA at 30 minutes prior to extinction training on day 3. […] Injection volumes were 10 mL/kg. The study was run in 2 cohorts. Data were presented as mean±standard error of the mean of the percentage (%) of the session time spent freezing (absence of movement other than respiration) or activity counts during the 2-minute acclimation period.

[4] = rats; 1 week after 4 hourly SC injections at 10 mg/kg/injection (Biezonski et al., 2013); cited from earlier work
[5] = tested on: PTSD participants; conditions: cited from earlier work
[6] = tested on: L-type calcium channel phenylalkylamine binding site; assay: Eurofins Panlabs radioligand binding panel, L-type calcium channel; parameters: species or system Rat; conditions: for % inhibition of binding or activity: 10 uM; for IC50 / Ki: 10 half-log concentrations, 0.3 nM to 10 μM, duplicate
[7] = racemic MDMA 7.8 mg/kg IP, Day 1, persisted out to Day 2, vs vehicle
[8] = racemic MDMA 7.8 mg/kg IP, any day of testing (Days 1, 2, 6, 11)
[9] = Day 3, racemic MDMA 7.8 mg/kg IP
[10] = Day 4, racemic MDMA 7.8 mg/kg IP
[11] = Days 8 and 13, single racemic MDMA 7.8 mg/kg IP on Day 3
[12] = R-MDMA all 3 dose levels (10, 17, 30 mg/kg IP), only on Day 1
[13] = Days 8 and 13, single R-MDMA 30 mg/kg IP on Day 3

Serotonin 5-HT2A, sequence (P28223 whole entry): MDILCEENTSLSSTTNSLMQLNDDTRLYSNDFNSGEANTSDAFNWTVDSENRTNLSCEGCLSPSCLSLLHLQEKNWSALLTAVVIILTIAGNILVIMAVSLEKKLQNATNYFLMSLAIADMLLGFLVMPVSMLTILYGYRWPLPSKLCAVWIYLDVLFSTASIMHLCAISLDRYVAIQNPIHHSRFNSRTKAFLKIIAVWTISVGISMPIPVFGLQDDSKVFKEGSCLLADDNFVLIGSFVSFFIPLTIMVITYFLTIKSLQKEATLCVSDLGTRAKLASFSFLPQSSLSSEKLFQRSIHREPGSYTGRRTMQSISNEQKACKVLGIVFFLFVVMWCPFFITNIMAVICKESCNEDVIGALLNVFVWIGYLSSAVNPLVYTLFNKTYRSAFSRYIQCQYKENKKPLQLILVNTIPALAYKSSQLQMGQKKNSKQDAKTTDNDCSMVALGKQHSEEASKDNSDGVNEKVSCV

For CNC(C)Cc1ccc2c(c1)OCO2 (racemic) [Racemic MDMA, 3,4-methylenedioxymethamphetamine], the “% inhibition of binding or activity” value ([1]; 10 uM) was 59%, the total distance traveled ([2]; racemic MDMA 7.8 mg/kg IP, Day 1, persisted out to Day 2, 30-minute test, vs vehicle) was “significantly increased” and the total ambulatory counts [2, 7] was “increased”. The total ambulatory time [2, 7] was “increased”, the total vertical counts [2, 8] was “did not alter” and the total vertical time [2, 8] was “did not alter”. The “activity counts vs vehicle” value [3, 9] was “significant increase in activity”, the freezing vs vehicle [3, 9] was “significantly reduced freezing” and the “activity counts vs vehicle” value [3, 10] was “significantly increased activity”. The freezing vs vehicle [3, 10] was “significantly reduced freezing”, the “activity counts vs vehicle” value [3, 11] was “significant increases in activity” and the freezing vs vehicle [3, 11] was “significantly reduced freezing”. For the same compound, the “frontal cortical and striatal monoamine concentrations” value [4] was “significant reductions in frontal cortical 5-HT and 5-HIAA and striatal DOPAC and HVA concentrations”, the “vital signs (systolic and diastolic blood pressure and heart rate)” value ([5]; MDMA group, Phase 3 clinical trial (Mitchell et al., 2021)) was “transient increase in vital signs” and the “efficacy for PTSD” value ([5]; Phase 3 clinical trial (Mitchell et al., 2021)) was “efficacy”. The “transient increase in body temperature to” value ([5]; two participants in the MDMA group) was 38.1 °C.
With CNC(C)Cc1ccc2c(c1)OCO2 (single isomer, unassigned) [R-MDMA, R(−)-3,4-methylenedioxymethamphetamine] the “% inhibition of binding or activity” value [6] was 55%, the IC50 [6] was 9.5 µM and the Ki [6] was 9.23 µM. The IC50 [1] was 9.91 µM, the Ki [1] was 2.83 µM and the total ambulatory time ([2]; R-MDMA 2 highest doses (17, 30 mg/kg IP), only on Day 1) was “significantly increased”. For the same compound, the total distance traveled ([2]; R-MDMA 10, 17, 30 mg/kg IP, any dose, any day of testing) was “no significant increase”, the total vertical counts [2, 12] was “significantly reduced” and the total vertical time [2, 12] was “significantly reduced”. For the same compound, the total ambulatory counts ([2]; R-MDMA highest dose (30 mg/kg IP), only on Day 1) was “significantly increased”, the total vertical time ([2]; R-MDMA lowest dose (10 mg/kg IP), day 2 only) was “significant increase” and the freezing vs vehicle ([3]; Day 3 (extinction training, single IP dose 30 min prior), R-MDMA 17 and 30 mg/kg) was “reduced freezing”. For the same compound, the freezing vs vehicle ([3]; Day 3, R-MDMA 10 mg/kg IP) was “no significant effect on freezing”, the “activity counts vs vehicle” value ([3]; Day 3, all doses of R-MDMA (10, 17, 30 mg/kg IP)) was “Significantly increased activity counts” and the freezing vs vehicle ([3]; Day 4 (day after single dose), R-MDMA 10, 17 and 30 mg/kg IP) was “significantly reduced freezing”. The activity vs vehicle ([3]; Day 4, R-MDMA 10 mg/kg IP) was “without a significant increase in activity”, the “activity counts vs vehicle” value ([3]; Day 4, R-MDMA 30 mg/kg IP) was “significantly increased activity” and the “locomotor activity vs vehicle” value ([3]; Days 3, 4, 8, 13, R-MDMA 17 mg/kg IP on Day 3) was “significantly increased locomotor activity only on the day of administration”. The freezing significantly reduced ([3]; Days 8 and 13, single R-MDMA 17 mg/kg IP on Day 3) was “but not on Days 8 and 13”, the “activity counts vs vehicle” value [3, 13] was “significant increases in activity” and the freezing vs vehicle [3, 13] was “significantly reduced freezing”.
With CNC(C)Cc1ccc2c(c1)OCO2 (single isomer, unassigned) [S-MDMA, S(+)-MDMA] the “% inhibition of binding or activity” value [6] was 51%, the IC50 [6] was 9.31 µM and the Ki [6] was 9.05 µM.
